Laboratory results from ChEMBL document CHEMBL1201862, “PubChem BioAssay data set” (2004).
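In this assay, cells in 96-well plates receive the compound at five concentrations for 48 hours. Endpoints are linearly interpolated between the surrounding concentrations. GI50: concentration for 50% inhibition of growth.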 The source made the active and inactive calls. Rule as the data show it: active = GI50 up to about 1.1 µM and inactive = higher.

Key:
Test in all cases: NCI-60 cell line screen, 48 h
KM12 = tested on: KM12
SF-268 = tested on: SF-268
PC-3 = tested on: PC-3
SF-539 = tested on: SF-539
U-251 = tested on: U-251
786-0 = tested on: 786-0
SR = tested on: SR
A549 = tested on: A549
SK-MEL-2 = tested on: SK-MEL-2
TK-10 = tested on: TK-10
NCI/ADR-RES = tested on: NCI/ADR-RES
SNB-19 = tested on: SNB-19
RPMI-8226 = tested on: RPMI-8226
MDA-N = tested on: MDA-N
MCF7 = tested on: MCF7
UACC-257 = tested on: UACC-257
DU-145 = tested on: DU-145
OVCAR-4 = tested on: OVCAR-4
HOP-92 = tested on: HOP-92
SK-MEL-28 = tested on: SK-MEL-28
MDA-MB-231 = tested on: MDA-MB-231
OVCAR-8 = tested on: OVCAR-8
SNB-75 = tested on: SNB-75
UACC-62 = tested on: UACC-62
SF-295 = tested on: SF-295
SK-MEL-5 = tested on: SK-MEL-5
Hs-578T = tested on: Hs-578T
K562 = tested on: K562
A498 = tested on: A498
MDA-MB-435 = tested on: MDA-MB-435
SW-620 = tested on: SW-620
M14 = tested on: M14
EKVX = tested on: EKVX
NCI-H460 = tested on: NCI-H460
HT-29 = tested on: HT-29
NCI-H23 = tested on: NCI-H23
MOLT-4 = tested on: MOLT-4
UO-31 = tested on: UO-31
CAKI-1 = tested on: CAKI-1
T47D = tested on: T47D
COLO 205 = tested on: COLO 205
OVCAR-3 = tested on: OVCAR-3
HCT-116 = tested on: HCT-116
OVCAR-5 = tested on: OVCAR-5
LOX IMVI = tested on: LOX IMVI
IGROV-1 = tested on: IGROV-1
RXF 393 = tested on: RXF 393
Malme-3M = tested on: Malme-3M
NCI-H522 = tested on: NCI-H522
ACHN = tested on: ACHN
SN12C = tested on: SN12C
BT-549 = tested on: BT-549
HCT-15 = tested on: HCT-15
NCI-H226 = tested on: NCI-H226
CCRF-CEM = tested on: CCRF-CEM
SK-OV-3 = tested on: SK-OV-3
HOP-62 = tested on: HOP-62
HCC 2998 = tested on: HCC 2998
HL-60 = tested on: HL-60

SMILES: C[N+]1(CCC(=O)c2ccco2)CC2CCC(CC2)C1 (stereo unspecified)
- GI50 (KM12): > 100 µM (inactive)
- GI50 (SF-268): > 100 µM (inactive)
- GI50 (PC-3): > 100 µM (inactive)
- GI50 (SF-539): > 100 µM (inactive)
- GI50 (U-251): > 100 µM (inactive)
- GI50 (786-0): > 100 µM (inactive)
- GI50 (SR): > 100 µM (inactive)
- GI50 (A549): > 100 µM (inactive)
- GI50 (SK-MEL-2): > 100 µM (inactive)
- GI50 (TK-10): > 100 µM (inactive)
- GI50 (NCI/ADR-RES): > 100 µM (inactive)
- GI50 (SNB-19): > 100 µM (inactive)
- GI50 (RPMI-8226): > 100 µM (inactive)
- GI50 (MDA-N): > 100 µM (inactive)
- GI50 (MCF7): > 100 µM (inactive)
- GI50 (UACC-257): > 100 µM (inactive)
- GI50 (DU-145): > 100 µM (inactive)
- GI50 (OVCAR-4): > 100 µM (inactive)
- GI50 (HOP-92): > 100 µM (inactive)
- GI50 (SK-MEL-28): > 100 µM (inactive)
- GI50 (MDA-MB-231): > 100 µM (inactive)
- GI50 (OVCAR-8): > 100 µM (inactive)
- GI50 (SNB-75): > 100 µM (inactive)
- GI50 (UACC-62): > 100 µM (inactive)
- GI50 (SF-295): > 100 µM (inactive)
- GI50 (SK-MEL-5): > 100 µM (inactive)
- GI50 (Hs-578T): > 100 µM (inactive)
- GI50 (K562): > 100 µM (inactive)
- GI50 (A498): > 100 µM (inactive)
- GI50 (MDA-MB-435): > 100 µM (inactive)
- GI50 (SW-620): > 100 µM (inactive)
- GI50 (M14): > 100 µM (inactive)
- GI50 (EKVX): > 100 µM (inactive)
- GI50 (NCI-H460): > 100 µM (inactive)
- GI50 (HT-29): > 100 µM (inactive)
- GI50 (NCI-H23): > 100 µM (inactive)
- GI50 (MOLT-4): > 100 µM (inactive)
- GI50 (UO-31): > 100 µM (inactive)
- GI50 (CAKI-1): > 100 µM (inactive)
- GI50 (T47D): > 100 µM (inactive)
- GI50 (COLO 205): > 100 µM (inactive)
- GI50 (OVCAR-3): > 100 µM (inactive)
- GI50 (HCT-116): > 100 µM (inactive)
- GI50 (OVCAR-5): > 100 µM (inactive)
- GI50 (LOX IMVI): > 100 µM (inactive)
- GI50 (IGROV-1): > 100 µM (inactive)
- GI50 (RXF 393): > 100 µM (inactive)
- GI50 (Malme-3M): > 100 µM (inactive)
- GI50 (NCI-H522): > 100 µM (inactive)
- GI50 (ACHN): > 100 µM (inactive)
- GI50 (SN12C): > 100 µM (inactive)
- GI50 (BT-549): > 100 µM (inactive)
- GI50 (HCT-15): > 100 µM
- GI50 (NCI-H226): > 100 µM (inactive)

SMILES: Nc1ccc(-c2nc3ccccc3s2)cc1I
- GI50 (CCRF-CEM): 30.1 µM (inactive)
- GI50 (KM12): 52.5 µM (inactive)
- GI50 (SF-268): > 33.5 µM (inactive)
- GI50 (PC-3): 41.5 µM (inactive)
- GI50 (SK-OV-3): > 65.6 µM (inactive)
- GI50 (SF-539): 77.8 µM (inactive)
- GI50 (U-251): 34.4 µM (inactive)
- GI50 (786-0): 43.9 µM (inactive)
- GI50 (SR): 42 µM (inactive)
- GI50 (A549): > 78 µM (inactive)
- GI50 (SK-MEL-2): > 100 µM (inactive)
- GI50 (TK-10): 0.0521 µM (active)
- GI50 (NCI/ADR-RES): > 100 µM (inactive)
- GI50 (SNB-19): 54.2 µM (inactive)
- GI50 (RPMI-8226): > 84.1 µM (inactive)
- GI50 (MDA-N): > 100 µM (inactive)
- GI50 (MCF7): < 0.0116 µM (active)
- GI50 (UACC-257): > 100 µM (inactive)
- GI50 (DU-145): > 100 µM (inactive)
- GI50 (OVCAR-4): > 7.93 µM (inactive)
- GI50 (HOP-62): 37.3 µM (inactive)
- GI50 (SK-MEL-28): > 100 µM (inactive)
- GI50 (MDA-MB-231): > 69.7 µM (inactive)
- GI50 (OVCAR-8): > 96.2 µM (inactive)
- GI50 (SNB-75): 41.9 µM (inactive)
- GI50 (UACC-62): > 73.6 µM (inactive)
- GI50 (SF-295): 74.3 µM (inactive)
- GI50 (SK-MEL-5): 58.7 µM (inactive)
- GI50 (Hs-578T): > 100 µM (inactive)
- GI50 (K562): 39.2 µM (inactive)
- GI50 (HCC 2998): 5.06 µM (inactive)
- GI50 (A498): 28.6 µM (inactive)
- GI50 (MDA-MB-435): 97.9 µM (inactive)
- GI50 (SW-620): > 92.7 µM (inactive)
- GI50 (M14): 81.8 µM (inactive)
- GI50 (EKVX): 14.9 µM (inactive)
- GI50 (NCI-H460): 38.5 µM (inactive)
- GI50 (HT-29): 66.2 µM (inactive)
- GI50 (NCI-H23): 64.9 µM (inactive)
- GI50 (MOLT-4): 28.4 µM (inactive)
- GI50 (UO-31): 14.2 µM (inactive)
- GI50 (CAKI-1): > 100 µM (inactive)
- GI50 (T47D): 18.7 µM (inactive)
- GI50 (COLO 205): 36 µM (inactive)
- GI50 (OVCAR-3): 0.0614 µM (active)
- GI50 (OVCAR-5): 0.0817 µM (active)
- GI50 (LOX IMVI): 44.8 µM (inactive)
- GI50 (IGROV-1): 0.0107 µM (active)
- GI50 (HL-60): 24.2 µM (inactive)
- GI50 (RXF 393): 29.7 µM (inactive)
- GI50 (Malme-3M): 99.3 µM (inactive)
- GI50 (NCI-H522): 31.1 µM (inactive)
- GI50 (ACHN): > 87.1 µM (inactive)
- GI50 (SN12C): 35.6 µM (inactive)
- GI50 (BT-549): > 78 µM (inactive)
- GI50 (HCT-15): 44.3 µM
- GI50 (NCI-H226): 0.221 µM (active)
